Results published in patent US20230089867A1, “CYCLIC PENTAMER COMPOUNDS AS PROPROTEIN CONVERTASE SUBTILISIN/KEXIN TYPE 9 (PCSK9) INHIBITORS FOR THE TREATMENT OF METABOLIC DISORDER” (Novartis AG, priority 2018, published 2023).

Biological target: human PCSK9 (Homo sapiens, UniProt Q8NBP7)
Assay: PCSK9 ligand binding TR-FRET assay (interference with binding of human PCSK9 to human LDLR)
Settings: for Max % inhibition: PCSK9 FRET assay, efficacy (Amax), 100% = 1 uM unlabeled human PCSK9, 0% = DMSO; for IC50: TR-FRET, human PCSK9 Alexa Fluor 647 / human LDLR extracellular domain-Europium Kryptate, read-out: PCSK9 FRET Assay IC50
Method in brief: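 Threefold compound dilutions were pre-incubated 30 min with PCSK9, after which 4 nM Europium Kryptate-tagged human LDLR ectodomain was added for a further 2 h.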

Sequence of human PCSK9 (Q8NBP7 153-692): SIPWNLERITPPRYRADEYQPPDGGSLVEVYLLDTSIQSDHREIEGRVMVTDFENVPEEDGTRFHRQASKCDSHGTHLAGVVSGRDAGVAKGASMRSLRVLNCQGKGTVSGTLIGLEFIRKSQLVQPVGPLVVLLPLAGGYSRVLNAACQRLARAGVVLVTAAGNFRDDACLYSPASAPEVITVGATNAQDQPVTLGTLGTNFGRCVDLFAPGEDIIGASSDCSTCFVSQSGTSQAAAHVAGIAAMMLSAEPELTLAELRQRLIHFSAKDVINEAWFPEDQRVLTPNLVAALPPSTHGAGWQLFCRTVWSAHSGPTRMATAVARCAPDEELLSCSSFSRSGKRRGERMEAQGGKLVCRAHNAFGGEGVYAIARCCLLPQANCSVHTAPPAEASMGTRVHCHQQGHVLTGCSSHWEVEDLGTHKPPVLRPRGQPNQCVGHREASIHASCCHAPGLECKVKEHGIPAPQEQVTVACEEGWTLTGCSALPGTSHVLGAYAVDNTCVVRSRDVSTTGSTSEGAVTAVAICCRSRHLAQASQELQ
Sequence of human PCSK9 (Q8NBP7 31-152 partner limits assumed): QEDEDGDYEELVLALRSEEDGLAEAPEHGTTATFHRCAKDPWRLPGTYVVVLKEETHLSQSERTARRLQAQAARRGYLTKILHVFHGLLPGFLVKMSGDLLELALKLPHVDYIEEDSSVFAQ

Max % inhibition	IC50	SMILES
50.23%	21.3 nM	C[C@H]1CNC(=O)C[C@H](Cc2ccc(Cl)cc2)N(C)C(=O)[C@H](CCF)NC(=O)[C@H](C)N(Cc2ccc(Cl)cc2Oc2ccc(-c3cnc(CN4CCCC4)n3C)cc2)C(=O)C[C@@H](Cc2ccccc2)C(=O)N1C [Compound 257, (2S,5S,8S,13S,16R)-16-benzyl-1-(4-chloro-2-(4-(1-methyl-2-(pyrrolidin-1-ylmethyl)-1H-imidazol-5-yl)phenoxy)benzyl)-8-(4-chlorobenzyl)-5-(2-fluoroethyl)-2,7,13,14-tetramethyl-1,4,7,11,14-pentaazacyclooctadecane-3,6,10,15,18-pentaone]
98.94%	4.3 nM	COC[C@@H]1NC(=O)[C@H](C)N(Cc2ccc(Cl)cc2Oc2ccc(-c3cnc(CN(C)C)n3C)cc2)C(=O)C[C@@H](Cc2c(F)ccc(F)c2F)C(=O)N(C)[C@@H](C)CNC(=O)C[C@H](Cc2ccc(Cl)cc2)N(C)C1=O [Compound 258, (2S,5S,8S,13S,16R)-1-(4-chloro-2-(4-(2-((dimethylamino)methyl)-1-methyl-1H-imidazol-5-yl)phenoxy)benzyl)-8-(4-chlorobenzyl)-5-(methoxymethyl)-2,7,13,14-tetramethyl-16-(2,3,6-trifluorobenzyl)-1,4,7,11,14-pentaazacyclooctadecane-3,6,10,15,18-pentaone]
108.15%	3.2 nM	COC[C@@H]1NC(=O)[C@H](C)N(Cc2ccc(Cl)cc2Oc2ccc(-n3cnc(CN4CCCC4)c3C)cc2)C(=O)C[C@@H](Cc2ccccc2)C(=O)N(C)[C@@H](C)CNC(=O)C[C@H](Cc2ccc(Cl)cc2)N(C)C1=O [Compound 259, (2S,5S,8S,13S,16R)-16-benzyl-1-(4-chloro-2-(4-(5-methyl-4-(pyrrolidin-1-ylmethyl)-1H-imidazol-1-yl)phenoxy)benzyl)-8-(4-chlorobenzyl)-5-(methoxymethyl)-2,7,13,14-tetramethyl-1,4,7,11,14-pentaazacyclooctadecane-3,6,10,15,18-pentaone]
109.05%	2.1 nM	Cc1c(CN2CCCC2)ncn1-c1ccc(Oc2cc(Cl)ccc2CN2C(=O)C[C@@H](Cc3ccccc3)C(=O)N(C)[C@H]3CCCC[C@@H]3NC(=O)C[C@H](Cc3ccc(Cl)cc3)N(C)C(=O)[C@H](CO)NC(=O)[C@@H]2C)cc1 [Compound 260, (4S,7S,10S,14R,16aS,20aS)-14-benzyl-11-(4-chloro-2-(4-(5-methyl-4-(pyrrolidin-1-ylmethyl)-1H-imidazol-1-yl)phenoxy)benzyl)-4-(4-chlorobenzyl)-7-(hydroxymethyl)-5,10,16-trimethylhexadecahydrobenzo[l][1,4,7,11,14]pentaazacyclooctadecine-2,6,9,12,15(3H)-pentaone]
111.41%	2 nM	COC[C@@H]1NC(=O)[C@H](C)N(Cc2ccc(Cl)cc2Oc2ccc(-c3cnc([C@@H](C)N(C)C)n3C)cc2)C(=O)C[C@@H](Cc2ccccc2)C(=O)N(C)[C@@H](C)[C@H](C)NC(=O)C[C@H](Cc2ccc(Cl)cc2)N(C)C1=O [Compound 261, (2S,5S,8S,12S,13S,16R)-16-benzyl-1-(4-chloro-2-(4-(2-((R)-1-(dimethylamino)ethyl)-1-methyl-1H-imidazol-5-yl)phenoxy)benzyl)-8-(4-chlorobenzyl)-5-(methoxymethyl)-2,7,12,13,14-pentamethyl-1,4,7,11,14-pentaazacyclooctadecane-3,6,10,15,18-pentaone]
97.63%	205 nM	COC[C@@H]1NC(=O)[C@H](C)N(Cc2ccc(Cl)cc2Oc2ccc(-c3cnc(CN(C)C)n3C)cc2)C(=O)C[C@H]2C(=O)N(C)[C@@H](CNC(=O)C[C@H](Cc3ccc(Cl)cc3)N(C)C1=O)C(=O)N2C [Compound 262, (1S,6S,9S,12S,16S)-13-(4-chloro-2-(4-(2-((dimethylamino)methyl)-1-methyl-1H-imidazol-5-yl)phenoxy)benzyl)-6-(4-chlorobenzyl)-9-(methoxymethyl)-7,12,17,19-tetramethyl-3,7,10,13,17,19-hexaazabicyclo[14.2.2]icosane-4,8,11,14,18,20-hexaone]
76.79%	5.3 nM	CCC[C@@H]1CC(=O)N(Cc2ccc(Cl)cc2Oc2ccc(-c3cnc(CN(C)C)n3C)cc2)[C@@H](C)C(=O)N[C@@H](COC)C(=O)N(C)[C@@H](Cc2ccc(Cl)cc2)CC(=O)N[C@H]2CCCC[C@@H]2N(C)C1=O [Compound 263, (4S,7S,10S,14R,16aS,20aS)-11-(4-chloro-2-(4-(2-((dimethylamino)methyl)-1-methyl-1H-imidazol-5-yl)phenoxy)benzyl)-4-(4-chlorobenzyl)-7-(methoxymethyl)-5,10,16-trimethyl-14-propylhexadecahydrobenzo[l][1,4,7,11,14]pentaazacyclooctadecine-2,6,9,12,15(3H)-pentaone]
106.30%	1.9 nM	COC[C@@H]1NC(=O)[C@H](C)N(Cc2ccc(Cl)cc2Oc2ccc(-n3cnc(CN4CCOCC4)c3C)cc2)C(=O)C[C@@H](Cc2ccccc2)C(=O)N(C)[C@H]2CCCC[C@@H]2NC(=O)C[C@H](Cc2ccc(Cl)cc2)N(C)C1=O [Compound 266, (4S,7S,10S,14R,16aS,20aS)-14-benzyl-11-(4-chloro-2-(4-(5-methyl-4-(morpholinomethyl)-1H-imidazol-1-yl)phenoxy)benzyl)-4-(4-chlorobenzyl)-7-(methoxymethyl)-5,10,16-trimethylhexadecahydrobenzo[l][1,4,7,11,14]pentaazacyclooctadecine-2,6,9,12,15(3H)-pentaone]
93.76%	7.1 nM	CCOC(=O)CCCN(CCCC(=O)OCC)CCC[C@H]1C(=O)N[C@@H](COC)C(=O)N(C)[C@@H](Cc2ccc(Cl)cc2)CC(=O)N[C@H]2CCCC[C@@H]2N(C)C(=O)[C@H](Cc2ccccc2)CC(=O)N1Cc1ccc(Cl)cc1Oc1ccc(-c2cnc(CN(C)C)n2C)cc1 [Compound 267, diethyl 4,4′-((3-((4S,7S,10S,14R,16aS,20aS)-14-benzyl-11-(4-chloro-2-(4-(2-((dimethylamino)methyl)-1-methyl-1H-imidazol-5-yl)phenoxy)benzyl)-4-(4-chlorobenzyl)-7-(methoxymethyl)-5,16-dimethyl-2,6,9,12,15-pentaoxodocosahydrobenzo[l][1,4,7,11,14]pentaazacyclooctadecin-10-yl)propyl)azanediyl)dibutanoate]
68.37%	9.4 nM	CC[C@H](c1ncc(-c2ccc(Oc3cc(Cl)ccc3CN3C(=O)C[C@@H](Cc4ccccc4)C(=O)N(C)[C@H]4CCCC[C@@H]4NC(=O)C[C@H](Cc4ccc(Cl)cc4)N(C)C(=O)[C@H](COC)NC(=O)[C@@H]3C)cc2)n1C)N(C)C [Compound 268, (4S,7S,10S,14R,16aS,20aS)-14-benzyl-11-(4-chloro-2-(4-(2-((R)-1-(dimethylamino)propyl)-1-methyl-1H-imidazol-5-yl)phenoxy)benzyl)-4-(4-chlorobenzyl)-7-(methoxymethyl)-5,10,16-trimethylhexadecahydrobenzo[l][1,4,7,11,14]pentaazacyclooctadecine-2,6,9,12,15(3H)-pentaone]
97.18%	1.3 nM	COC[C@@H]1NC(=O)[C@H](CC(=O)N(C)C)N(Cc2ccc(Cl)cc2Oc2ccc(-c3cnc(CN(C)C)n3C)cc2)C(=O)C[C@@H](Cc2ccccc2)C(=O)N(C)[C@H]2CCCC[C@@H]2NC(=O)C[C@H](Cc2ccc(Cl)cc2)N(C)C1=O [Compound 269, 2-((4S,7S,10S,14R,16aS,20aS)-14-benzyl-11-(4-chloro-2-(4-(2-((dimethylamino)methyl)-1-methyl-1H-imidazol-5-yl)phenoxy)benzyl)-4-(4-chlorobenzyl)-7-(methoxymethyl)-5,16-dimethyl-2,6,9,12,15-pentaoxodocosahydrobenzo[l][1,4,7,11,14]pentaazacyclooctadecin-10-yl)-N,N-dimethylacetamide]
106.63%	2.7 nM	COC[C@@H]1NC(=O)[C@H](C)N(Cc2ccc(Cl)cc2Oc2ccc(-n3cnc([C@@H](C)N(C)C)c3C)cc2)C(=O)C[C@@H](Cc2ccccc2)C(=O)N(C)[C@@H](C)[C@H](C)NC(=O)C[C@H](Cc2ccc(Cl)cc2)N(C)C1=O [Compound 270, (2S,5S,8S,12S,13S,16R)-16-benzyl-1-(4-chloro-2-(4-(4-((R)-1-(dimethylamino)ethyl)-5-methyl-1H-imidazol-1-yl)phenoxy)benzyl)-8-(4-chlorobenzyl)-5-(methoxymethyl)-2,7,12,13,14-pentamethyl-1,4,7,11,14-pentaazacyclooctadecane-3,6,10,15,18-pentaone]
84.13%	6.9 nM	COC[C@@H]1NC(=O)[C@H](C)N(Cc2ccc(Cl)cc2Oc2ccc(-c3cnc(C4=CCOCC4)n3C)cc2)C(=O)C[C@@H](Cc2ccccc2)C(=O)N(C)[C@@H](C)CNC(=O)C[C@H](Cc2ccc(Cl)cc2)N(C)C1=O [Compound 271, (2S,5S,8S,13S,16R)-16-benzyl-1-(4-chloro-2-(4-(2-(3,6-dihydro-2H-pyran-4-yl)-1-methyl-1H-imidazol-5-yl)phenoxy)benzyl)-8-(4-chlorobenzyl)-5-(methoxymethyl)-2,7,13,14-tetramethyl-1,4,7,11,14-pentaazacyclooctadecane-3,6,10,15,18-pentaone]
98.30%	1.2 nM	COC[C@@H]1NC(=O)[C@H](CCCN2CCOCC2)N(Cc2ccc(Cl)cc2Oc2ccc(-c3cnc(CN(C)C)n3C)cc2)C(=O)C[C@@H](Cc2ccccc2)C(=O)N(C)[C@H]2CCCC[C@@H]2NC(=O)C[C@H](Cc2ccc(Cl)cc2)N(C)C1=O [Compound 272, (4S,7S,10S,14R,16aS,20aS)-14-benzyl-11-(4-chloro-2-(4-(2-((dimethylamino)methyl)-1-methyl-1H-imidazol-5-yl)phenoxy)benzyl)-4-(4-chlorobenzyl)-7-(methoxymethyl)-5,16-dimethyl-10-(3-morpholinopropyl)hexadecahydrobenzo[l][1,4,7,11,14]pentaazacyclooctadecine-2,6,9,12,15(3H)-pentaone]
